Assay results reported in patent US9873709B2 (priority 2013, dated 2018).

System: JAK1-dependent STAT6 phosphorylation downstream of IL-13 stimulation in TF-1 human erythroleukemia cells
Experiment: cells
Details: TF-1, read-out: IL-13-pSTAT6 IC50

SMILES	IC50 [nM]
O=C(CCC(F)(F)F)N1CC=C(c2cccn3nc(Nc4ccc(C(=O)N5CCCN(c6ccncc6)CC5)cc4)nc23)CC1 [Example 2-278, 4,4,4-trifluoro-1-[4-[2-[4-[4-(4-pyridyl)-1,4-diazepane-1-carbonyl]anilino]-[1,2,4]triazolo[1,5-a]pyridin-8-yl]-3,6-dihydro-2H-pyridin-1-yl]butan-1-one]	39.3
O=C(CCC(F)(F)F)N1CC=C(c2cccn3nc(Nc4ccc(C(=O)N(CCO)Cc5cccnc5)cc4)nc23)CC1 [Example 2-279, N-(2-hydroxyethyl)-N-(3-pyridylmethyl)-4-[[8-[1-(4,4,4-trifluorobutanoyl)-3,6-dihydro-2H-pyridin-4-yl]-[1,2,4]triazolo[1,5-a]pyridin-2-yl]amino]benzamide]	38.8
O=C(CCC(F)(F)F)N1CC=C(c2cccn3nc(Nc4ccc(C(=O)N5CCCCC5c5cccnc5)cc4)nc23)CC1 (stereo not drawn) [Example 2-280, 4,4,4-trifluoro-1-[4-[2-[4-[2-(3-pyridyl)piperidine-1-carbonyl]anilino]-[1,2,4]triazolo[1,5-a]pyridin-8-yl]-3,6-dihydro-2H-pyridin-1-yl]butan-1-one]	9.5
CN1CCC(N(C)C(=O)c2ccc(Nc3nc4c(C5=CCN(C(=O)C6CCCC6)CC5)cccn4n3)cc2)CC1 [Example 2-281, 4-[[8-[1-(cyclopentanecarbonyl)-3,6-dihydro-2H-pyridin-4-yl]-[1,2,4]triazolo[1,5-a]pyridin-2-yl]amino]-N-methyl-N-(1-methyl-4-piperidyl)benzamide]	39.4
CN1CCC(N(C)C(=O)c2ccc(Nc3nc4c(C5=CCN(C(=O)OC6COC6)CC5)cccn4n3)cc2)CC1 [Example 2-283, oxetan-3-yl-4-[2-[4-[methyl-(1-methyl-4-piperidyl)carbamoyl]anilino]-[1,2,4]triazolo[1,5-a]pyridin-8-yl]-3,6-dihydro-2H-pyridine-1-carboxylate]	54
CN1CCC(N(C)C(=O)c2ccc(Nc3nc4c(C5=CCN(c6ccccc6)CC5)cccn4n3)cc2)CC1 [Example 2-284, N-methyl-N-(1-methyl-4-piperidyl)-4-[[8-(1-phenyl-3,6-dihydro-2H-pyridin-4-yl)-[1,2,4]triazolo[1,5-a]pyridin-2-yl]amino]benzamide]	163
CN1CCC(N(C)C(=O)c2ccc(Nc3nc4c(C5=CCN(C(=O)N6CC7(COC7)C6)CC5)cccn4n3)cc2)CC1 [Example 2-286, N-methyl-N-(1-methyl-4-piperidyl)-4-[[8-[1-(2-oxa-6-azaspiro[3.3]heptane-6-carbonyl)-3,6-dihydro-2H-pyridin-4-yl]-[1,2,4]triazolo[1,5-a]pyridin-2-yl]amino]benzamide]	1750
CN1CCC(N(C)C(=O)c2ccc(Nc3nc4c(C5=CCN(C(=O)CCC#N)CC5)cccn4n3)cc2)CC1 [Example 2-287, 4-[[8-[1-(3-cyanopropanoyl)-3,6-dihydro-2H-pyridin-4-yl]-[1,2,4]triazolo[1,5-a]pyridin-2-yl]amino]-N-methyl-N-(1-methyl-4-piperidyl)benzamide]	248
CCCC(=O)N1CC=C(c2cccn3nc(Nc4ccc(C(=O)N(C)C5CCN(C)CC5)cc4)nc23)CC1 [Example 2-289, 4-[[8-(1-butanoyl-3,6-dihydro-2H-pyridin-4-yl)-[1,2,4]triazolo[1,5-a]pyridin-2-yl]amino]-N-methyl-N-(1-methyl-4-piperidyl)benzamide]	42.9
CN1CCC(N(C)C(=O)c2ccc(Nc3nc4c(C5=CCN(C(=O)N6CC(C)(C)C6)CC5)cccn4n3)cc2)CC1 [Example 2-290, 4-[[8-[1-(3,3-dimethylazetidine-1-carbonyl)-3,6-dihydro-2H-pyridin-4-yl]-[1,2,4]triazolo[1,5-a]pyridin-2-yl]amino]-N-methyl-N-(1-methyl-4-piperidyl)benzamide]	37.7
CCOC(=O)N1CC=C(c2cccn3nc(Nc4ccc(C(=O)NCCCN5CCN(C)CC5)cc4)nc23)CC1 [Example 2-291, ethyl 4-[2-[4-[3-(4-methylpiperazin-1-yl)propylcarbamoyl]anilino]-[1,2,4]triazolo[1,5-a]pyridin-8-yl]-3,6-dihydro-2H-pyridine-1-carboxylate]	22.3
CCOC(=O)N1CC=C(c2cccn3nc(Nc4ccc(C(=O)NCC5CCCN(C)C5)cc4)nc23)CC1 (stereo not drawn) [Example 2-293, ethyl 4-[2-[4-[(1-methyl-3-piperidyl)methylcarbamoyl]anilino]-[1,2,4]triazolo[1,5-a]pyridin-8-yl]-3,6-dihydro-2H-pyridine-1-carboxylate]	29.5
CCOC(=O)N1CC=C(c2cccn3nc(Nc4ccc(C(=O)NCC5CCNC5)cc4)nc23)CC1 (stereo not drawn) [Example 2-296, ethyl 4-[2-[4-(pyrrolidin-3-ylmethylcarbamoyl)anilino]-[1,2,4]triazolo[1,5-a]pyridin-8-yl]-3,6-dihydro-2H-pyridine-1-carboxylate]	383
CCOC(=O)N1CC=C(c2cccn3nc(Nc4ccc(C(=O)NCC5CC56CCNCC6)cc4)nc23)CC1 (stereo not drawn) [Example 2-306, ethyl 4-[2-[4-(6-azaspiro[2.5]octan-2-ylmethylcarbamoyl)anilino]-[1,2,4]triazolo[1,5-a]pyridin-8-yl]-3,6-dihydro-2H-pyridine-1-carboxylate]	438
CCOC(=O)N1CC=C(c2cccn3nc(Nc4ccc(C(=O)N5CCC6CNCC65)cc4)nc23)CC1 (stereo not drawn) [Example 2-308, ethyl 4-[2-[4-(3,3a,4,5,6,6a-hexahydro-2H-pyrrolo[2,3-c]pyrrole-1-carbonyl)anilino]-[1,2,4]triazolo[1,5-a]pyridin-8-yl]-3,6-dihydro-2H-pyridine-1-carboxylate]	76.1

The next lines start with the values.

IC50 [nM]	SMILES
184	O=C(CCC(F)(F)F)N1CC=C(c2cccn3nc(Nc4ccc(C(=O)N5CC6CNCC6C5)cc4)nc23)CC1 (stereo not drawn) [Example 2-313, 1-[4-[2-[4-(2,3,3a,4,6,6a-hexahydro-1H-pyrrolo[3,4-c]pyrrole-5-carbonyl)anilino]-[1,2,4]triazolo[1,5-a]pyridin-8-yl]-3,6-dihydro-2H-pyridin-1-yl]-4,4,4-trifluoro-butan-1-one]
194	O=C(CCC(F)(F)F)N1CC=C(c2cccn3nc(Nc4ccc(C(=O)N5CCC6(CC5)CNC6)cc4)nc23)CC1 [Example 2-314, 1-[4-[2-[4-(2,7-diazaspiro[3.5]nonane-7-carbonyl)anilino]-[1,2,4]triazolo[1,5-a]pyridin-8-yl]-3,6-dihydro-2H-pyridin-1-yl]-4,4,4-trifluoro-butan-1-one]
109	NC1CC2(CCN(C(=O)c3ccc(Nc4nc5c(C6=CCN(C(=O)CCC(F)(F)F)CC6)cccn5n4)cc3)CC2)C1 [Example 2-315, 1-[4-[2-[4-(2-amino-7-azaspiro[3.5]nonane-7-carbonyl)anilino]-[1,2,4]triazolo[1,5-a]pyridin-8-yl]-3,6-dihydro-2H-pyridin-1-yl]-4,4,4-trifluoro-butan-1-one]
145	O=C(NCCC1CCCN1)c1ccc(Nc2nc3c(C4=CCN(C(=O)CCC(F)(F)F)CC4)cccn3n2)cc1 (stereo not drawn) [Example 2-316, N-(2-pyrrolidin-2-ylethyl)-4-[[8-[1-(4,4,4-trifluorobutanoyl)-3,6-dihydro-2H-pyridin-4-yl]-[1,2,4]triazolo[1,5-a]pyridin-2-yl]amino]benzamide]
228	O=C(NCC1CCCN1)c1ccc(Nc2nc3c(C4=CCN(C(=O)CCC(F)(F)F)CC4)cccn3n2)cc1 (stereo not drawn) [Example 2-317, N-(pyrrolidin-2-ylmethyl)-4-[[8-[1-(4,4,4-trifluorobutanoyl)-3,6-dihydro-2H-pyridin-4-yl]-[1,2,4]triazolo[1,5-a]pyridin-2-yl]amino]benzamide]
37.7	O=C(CCC(F)(F)F)N1CC=C(c2cccn3nc(Nc4ccc(C(=O)N5CCNCC5)cc4)nc23)CC1 [Example 2-318, 4,4,4-trifluoro-1-[4-[2-[4-(piperazine-1-carbonyl)anilino]-[1,2,4]triazolo[1,5-a]pyridin-8-yl]-3,6-dihydro-2H-pyridin-1-yl]butan-1-one]
24.3	CC1CNCCN1C(=O)c1ccc(Nc2nc3c(C4=CCN(C(=O)CCC(F)(F)F)CC4)cccn3n2)cc1 (stereo not drawn) [Example 2-319, 4,4,4-trifluoro-1-[4-[2-[4-(2-methylpiperazine-1-carbonyl)anilino]-[1,2,4]triazolo[1,5-a]pyridin-8-yl]-3,6-dihydro-2H-pyridin-1-yl]butan-1-one]
120	O=C(CCC(F)(F)F)N1CC=C(c2cccn3nc(Nc4ccc(C(=O)N5CC[C@H]6CNC[C@H]65)cc4)nc23)CC1 [Example 2-320, 1-[4-[2-[4-[(3aS,6aS)-3,3a,4,5,6,6a-hexahydro-2H-pyrrolo[2,3-c]pyrrole-1-carbonyl]anilino]-[1,2,4]triazolo[1,5-a]pyridin-8-yl]-3,6-dihydro-2H-pyridin-1-yl]-4,4,4-trifluoro-butan-1-one]
250	O=C(CCC(F)(F)F)N1CC=C(c2cccn3nc(Nc4ccc(C(=O)N5C[C@H]6CNC[C@H]6C5)cc4)nc23)CC1 [Example 2-321, 1-[4-[2-[4-[(3aR,6aS)-2,3,3a,4,6,6a-hexahydro-1H-pyrrolo[3,4-c]pyrrole-5-carbonyl]anilino]-[1,2,4]triazolo[1,5-a]pyridin-8-yl]-3,6-dihydro-2H-pyridin-yl]-4,4,4-trifluoro-butan-1-one]
104	O=C(NC1CC2(CCNCC2)C1)c1ccc(Nc2nc3c(C4=CCN(C(=O)CCC(F)(F)F)CC4)cccn3n2)cc1 [Example 2-322, N-(7-azaspiro[3.5]nonan-2-yl)-4-[[8-[1-(4,4,4-trifluorobutanoyl)-3,6-dihydro-2H-pyridin-4-yl]-[1,2,4]triazolo[1,5-a]pyridin-2-yl]amino]benzamide]
17.5	N[C@]12C[C@H]1CN(C(=O)c1ccc(Nc3nc4c(C5=CCN(C(=O)CCC(F)(F)F)CC5)cccn4n3)cc1)C2 [Example 2-323]
8.2	CN1CCCCC1C1CCCN1C(=O)c1ccc(Nc2nc3c(C4=CCN(C(=O)CCC(F)(F)F)CC4)cccn3n2)cc1 (stereo not drawn) [Example 2-324, 4,4,4-trifluoro-1-[4-[2-[4-[2-(1-methyl-2-piperidyl)pyrrolidine-1-carbonyl]anilino]-[1,2,4]triazolo[1,5-a]pyridin-8-yl]-3,6-dihydro-2H-pyridin-yl]butan-1-one]
